Measurements published in PMC6668435, “The structural basis of N-acyl-α-amino-β-lactone formation catalyzed by a nonribosomal peptide synthetase” (Nature Communications, 2019).

Columns and labels:
ObiH = target: T1, ObiH (Burkholderia diffusa, UniProt Z9H1N4SZ53); assay: LCMS detection of the β-hydroxy-α-amino acid product in coupled assay; type: biochemical
T1 sequence (Z9H1N4SZ53 1-440): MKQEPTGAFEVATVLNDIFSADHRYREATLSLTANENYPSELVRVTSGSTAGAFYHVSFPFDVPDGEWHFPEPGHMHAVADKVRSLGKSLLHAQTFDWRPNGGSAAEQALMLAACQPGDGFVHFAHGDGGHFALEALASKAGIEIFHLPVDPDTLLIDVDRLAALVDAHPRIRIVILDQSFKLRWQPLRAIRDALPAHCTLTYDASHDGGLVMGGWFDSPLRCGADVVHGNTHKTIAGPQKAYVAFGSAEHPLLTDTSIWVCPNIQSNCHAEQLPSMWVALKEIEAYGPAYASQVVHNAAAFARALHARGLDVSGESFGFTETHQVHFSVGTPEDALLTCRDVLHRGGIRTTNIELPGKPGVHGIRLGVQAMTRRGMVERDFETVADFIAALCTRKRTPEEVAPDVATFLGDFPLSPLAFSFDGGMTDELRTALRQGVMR

ObiF1 [1] = target: T2, ObiF1 (Burkholderia diffusa, UniProt A0A5H1ZR44); assay: coupled ObiF1/F2/D/H reconstitution, LCMS product ion counts; type: biochemical; conditions: made in situ by ObiH from phenylacetaldehyde and L-Thr; 1 µM holo-ObiF1, 5 mM ATP, 2,3-DHB, GSH or DTT trap, pH 7.5, room temperature
T2 construct: full-length NRPS module C-A-PCP-TE-MLP (last residue Val1390), N-terminal His6, E. coli BL21(DE3), holo form (phosphopantetheinylated with Sfp and CoA); codon-optimised synthetic gene

ObiF2 = target: T3, ObiF2 (Burkholderia diffusa, UniProt Z9YLO8D081); assay: coupled ObiF1/F2/D/H reconstitution, LCMS of acyl adenylate and product ions; type: biochemical
T3 sequence (Z9YLO8D081 1-545): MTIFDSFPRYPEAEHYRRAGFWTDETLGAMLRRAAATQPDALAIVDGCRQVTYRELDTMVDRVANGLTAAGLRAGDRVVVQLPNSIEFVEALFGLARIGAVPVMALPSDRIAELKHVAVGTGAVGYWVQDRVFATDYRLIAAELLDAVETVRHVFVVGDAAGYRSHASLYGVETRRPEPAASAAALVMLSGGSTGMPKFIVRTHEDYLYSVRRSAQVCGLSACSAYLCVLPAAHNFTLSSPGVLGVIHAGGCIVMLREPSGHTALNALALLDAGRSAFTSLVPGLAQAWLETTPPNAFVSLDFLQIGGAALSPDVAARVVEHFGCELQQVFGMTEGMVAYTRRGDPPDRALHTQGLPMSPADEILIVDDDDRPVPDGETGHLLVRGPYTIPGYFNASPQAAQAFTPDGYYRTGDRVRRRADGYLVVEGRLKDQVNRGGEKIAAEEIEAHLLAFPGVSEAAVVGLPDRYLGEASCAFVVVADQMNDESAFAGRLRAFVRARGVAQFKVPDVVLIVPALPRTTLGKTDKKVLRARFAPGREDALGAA

ObiF1 [2] = target: T2, ObiF1; assay: X-ray crystal structure, […] Å; type: binding; conditions: holo-ObiF1 co-crystallised with 2 mM ligand; bound in A domain active site (adenylate-forming conformation)
[3] = target: ObiF1-del1304 (ObiF1 C-A-PCP-TE, terminated after Leu1303, without the MLP domain) (Burkholderia diffusa)

O=CCc1ccccc1 [1a, phenylacetaldehyde]
LCMS detection of the β-hydroxy-α-amino acid product in coupled assay (ObiH): Starting from phenylacetaldehyde (PAA), the L-Thr transaldolase ObiH generates

N[C@H](C(=O)O)[C@H](O)Cc1ccccc1 [2a, β-OH-homoPhe]
coupled ObiF1/F2/D/H reconstitution, LCMS product ion counts (ObiF1 [1]): The best substrates for ObiF1 were β-hydroxy-α-amino acids (2a, 2b) derived from phenylacetaldehydes

O=C(O)c1ccccc1O [3c, 2-OH benzoic acid]
coupled ObiF1/F2/D/H reconstitution, LCMS of acyl adenylate and product ions (ObiF2): 2-OH and 3-OH benzoic acids (3c and 3d) were both activated and converted efficiently

N[C@H](C(=O)O)[C@H](O)Cc1ccc([N+](=O)[O-])cc1 [β-OH-p-NO2-homoPhe, (2S,3R)-β-hydroxy-p-nitro-homophenylalanine]
X-ray crystal structure, 3.0 Å (ObiF1 [2]): β-OH-p-NO2-homoPhe binds in the A domain active site

ObiF1 MLP domain, residues 1304-1390, co-expressed in trans from the construct ObiF1 rbs1303/4 (domain or fragment)
product ion counts by LCMS in the ObiF1/F2/D/H reconstitution assay, protein sample rbs1303/4 (C-A-PCP-TE co-expressed with the MLP domain), no MLP added (fold lower than WT) [3]: 4
